In the NIST ThermoML archive (doi:10.1021/je100687x):

What was measured:
[1] = 101 kPa, Liquid; for electrical conductivity: Crison GLP 31+ conductivimeter
[2] = xn = mol fraction of the nth substance listed; conditions: 101 kPa, Liquid; for electrical conductivity: Crison GLP 31+ conductivimeter

CCCCCCn1cc[n+](C)c1.F[B-](F)(F)F [1-hexyl-3-methylimidazolium tetrafluoroborate]
[1]
Conditions	electrical conductivity [S/m]	viscosity [mPa·s]
288.15 K	–	357.5
298.15 K	0.126	190.9
308.15 K	–	110.3
318.15 K	–	68.5

CCn1cc[n+](C)c1.F[B-](F)(F)F [1-ethyl-3-methylimidazolium tetrafluoroborate] + CCO
[2]
Conditions	electrical conductivity [S/m]	viscosity [mPa·s]
288.15 K, x2 = 0	–	55.5
288.15 K, x2 = 0.0946	–	34.76
288.15 K, x2 = 0.1928	–	25.25
288.15 K, x2 = 0.2757	–	20.25
288.15 K, x2 = 0.3116	–	18.17
288.15 K, x2 = 0.3913	–	13.68
288.15 K, x2 = 0.4553	–	12.47
298.15 K, x2 = 0	1.63	36.9
298.15 K, x2 = 0.028	1.718	–
298.15 K, x2 = 0.057	1.843	–
298.15 K, x2 = 0.0719	1.911	–
298.15 K, x2 = 0.0946	–	24.46
298.15 K, x2 = 0.1034	2.061	–
298.15 K, x2 = 0.1624	2.287	–
298.15 K, x2 = 0.1928	–	18.33
298.15 K, x2 = 0.242	2.647	–
298.15 K, x2 = 0.2757	–	14.92
298.15 K, x2 = 0.3116	–	13.47
298.15 K, x2 = 0.3165	2.982	–
298.15 K, x2 = 0.3892	3.228	–
298.15 K, x2 = 0.3913	–	10.3
298.15 K, x2 = 0.4085	3.278	–
298.15 K, x2 = 0.4322	3.26	–
298.15 K, x2 = 0.4511	3.47	–
298.15 K, x2 = 0.4553	–	8.445
298.15 K, x2 = 0.4613	3.561	–
308.15 K, x2 = 0	–	26
308.15 K, x2 = 0.0946	–	18.04
308.15 K, x2 = 0.1928	–	13.88
308.15 K, x2 = 0.2757	–	11.39
308.15 K, x2 = 0.3116	–	10.38
308.15 K, x2 = 0.3913	–	8.074
308.15 K, x2 = 0.4553	–	6.668
318.15 K, x2 = 0	–	19.17
318.15 K, x2 = 0.0946	–	13.79
318.15 K, x2 = 0.1928	–	10.84
318.15 K, x2 = 0.2757	–	8.958
318.15 K, x2 = 0.3116	–	8.238
318.15 K, x2 = 0.3913	–	6.494
318.15 K, x2 = 0.4553	–	5.408

CCn1cc[n+](C)c1.F[B-](F)(F)F [1-ethyl-3-methylimidazolium tetrafluoroborate]
[1]
Conditions	electrical conductivity [S/m]	viscosity [mPa·s]
288.15 K	–	55.5
298.15 K	1.63	36.9
308.15 K	–	26
318.15 K	–	19.17

CCCCn1cc[n+](C)c1.F[B-](F)(F)F [1-butyl-3-methylimidazolium tetrafluoroborate]
[1]
Conditions	electrical conductivity [S/m]	viscosity [mPa·s]
288.15 K	–	173.5
298.15 K	0.352	99.2
308.15 K	–	61.3
318.15 K	–	40.4

CCO [ethanol]
[1]
Conditions	electrical conductivity [S/m]	viscosity [mPa·s]
288.15 K	–	1.296
298.15 K	3e-05	1.091
308.15 K	–	0.9153
318.15 K	–	0.7738

CCO [ethanol] + CCCCCCCC[n+]1ccn(C)c1.F[B-](F)(F)F
Conditions	electrical conductivity [S/m]
[2], 298.15 K, x1 = 1	3e-05

CCO [ethanol] + CCn1cc[n+](C)c1.F[B-](F)(F)F
[2], x1 = 1
Conditions	viscosity [mPa·s]
288.15 K	1.296
298.15 K	1.091
308.15 K	0.9153
318.15 K	0.7738

CCCCCCCC[n+]1ccn(C)c1.F[B-](F)(F)F [1-methyl-3-octylimidazolium tetrafluoroborate]
[1]
Conditions	electrical conductivity [S/m]	viscosity [mPa·s]
288.15 K	–	686
298.15 K	0.069	337.4
308.15 K	–	187.7
318.15 K	–	112.1
